Source: US5616716A, “(3-(5-ethoxypyridin)yl)-alkenyl 1 amine compounds” (priority 1996, dated 1997)

Experiments:
nicotinic receptors = assay: Binding of compounds to relevant receptor sites (inhibition of L-[^3 H]nicotine binding, rat brain membranes); parameters: species or system rat (Sprague-Dawley); conditions: inhibition of L-[^3 H]nicotine (10 nM) binding
Protocol: Rats (Sprague-Dawley) were maintained on a 12 hour light/dark cycle and were allowed free access to water and food supplied by Wayne Lab Blox, Madison, Wis. Animals used in the present studies weighed 200 to 250 g. Brain membrane preparations were obtained from brain tissue of either males or females.
Rats were killed by decapitation following anesthesia with 70% CO2. Brains were removed and placed on an ice-cold platform.
The incubation buffer was Krebs-Ringers HEPES containing 200 mM TRIS buffer, pH 7.5. The binding reaction was terminated by filtration of the protein containing bound ligand onto glass fiber filters (Micro Filtration Systems) that had been soaked in buffer containing 0.5 percent polyethyleneimine. Filtration vacuum was -50 to -100 torr. Each filter was washed five times with 3 ml of ice-cold buffer. […] Nonspecific binding was determined by inclusion of 10 uM nonradioactive nicotine in the incubations.
The inhibition of L-[^3 H]nicotine binding by test compounds was determined by including one of eight different concentrations of the test compound in the incubation.

[1] = target: CNS nicotinic receptors (thalamic synaptosomes); assay: Determination of ion flux from thalamic synaptosomes (^86 Rb+ efflux; receptor activation); format: biochemical, rat; conditions: for Receptor Activation Emax: percent of Emax for tetramethylammonium
Protocol: Determination of ion flux from thalamic synaptosomes
Rat brains were dissected and midbrain (thalamus and mesencephalon) removed. The midbrain was then placed into a tube on ice, homogenized, and centrifuged at 2800 rpm for 10 minutes. The supernatant was collected and centrifuged for another 20 minutes at 9650 rpm The resulting pellet was resuspended by trituration in 700 ul ice cold perfusion buffer. Synaptosomes were then loaded with ^86 Rb+ Ion efflux was determined using the methods of Marks et al., J. Pharmacol. Exp. Ther., Vol. 264, pp. 427-436 (1993). Total efflux was determined by subtraction of basal release from release at stimulation (total peak release). The ratio of the peak to baseline (Rp) was calculated for each concentration. A tetramethylammonium control (i.e., a full agonist to the receptor of interest) is used in each assay to compare each agonist's ability to stimulate rubidium efflux to the control. Emax values are reported as a percent of Emax for tetramethylammonium.

[2] = system: dopamine release from striatal synaptosomes; assay: Determination of dopamine release (striatal synaptosomes); format: biochemical, rat (Sprague-Dawley); conditions: rat striatal synaptosomes; for Dopamine Release Emax: percentage of release obtained with (S)-(-)-nicotine
Protocol: Determination of Dopamine Release
Dopamine release was measured by preparing synaptosomes from the striatal area of rat brain obtained from Sprague-Dawley rats generally according to the procedures set forth by Nagy et al. J. Neurochem., Vol. 43, pp. 1114-1123 (1984). Striata from 4 rats were homogenized in 2 ml of 0.32M sucrose buffered with 5 mM HEPES (pH 7.5), using a glass-Teflon tissue grinder. The homogenate was diluted to 5 ml with additional homogenization solution and centrifuged at 1,000 ×g for 10 min. This procedure was repeated on the new pellet and the resulting supernatant was centrifuged at 12,000 ×g for 20 min. A 3 layer discontinuous Percoll gradient consisting of 16 percent, 10 percent and 7.5 percent Percoil in HEPES-buffered sucrose was made with the final pellet dispersed in the top layer. After centrifugation at 15,000 ×g for 20 min., the synaptosomes were recovered above the 16 percent layer with a Pasteur pipette, diluted with 8 ml of perfusion buffer (128 mM NaCl, 2.4 mM KCl, 3.2 mM CaCl2, 1.2 KH2 PO4, 1.2 mM MgSO4, 25 mM HEPES pH 7.4, 10 mM dextrose, 1 mM ascorbate, 0.01 mM pargyline), and centrifuged at 15,000 ×g for 20 min. The new pellet was collected and re-suspended in perfusion buffer. The synaptosome suspension was incubated for 10 min. at 37 ° C. [^3 H]-Dopamine (Amersham, 40-60 Ci/mmol) was added to the suspension to give a final concentration of 0.1 uM, and the suspension was incubated for another 5 min. Using this method, 30 to 90 percent of the dopamine was taken up into the synaptosomes, as determined by scintillation counting following filtration through glass fiber filters soaked with 0.5 percent polyethyleneimine. A continuous perfusion system was used to monitor release following exposure to each ligand. Synaptosomes were loaded onto glass fiber filters (Gelman type A/E). Perfusion buffer was dripped onto the filters (0.2-0.3 ml/min.) and pulled through the filters with a peristaltic pump. Synaptosomes were washed with perfusion buffer for a minimum of 20 min. before addition of the ligand. After the addition of 0.2 ml of a solution containing various concentrations of ligand, the perfusate was collected into scintillation vials at 1 min. intervals and the dopamine released was quantified by scintillation counting. Peaks of radioactivity released above background were summed and the average basal release during that time was subtracted from the total. Release was expressed as a percentage of release obtained with an equal concentration of(S)--(-)--nicotine.

[3] = target: T1, ganglionic-type neuronal nicotinic receptors (PC12) (Rattus norvegicus, UniProt P04757+P12392); assay: cell-based; conditions: PC12, ^86 Rb^+ efflux, percentage of maximal activation induced by (S)-(-)-nicotine
T1 construct: Ganglionic effects were established on the rat pheochromocytoma clonal line PC12; endogenous in cells; host or cells: PC12 (rat pheochromocytoma)
Source text: Determination of Interaction with Ganglia
Ganglionic effects were established on the rat pheochromocytoma clonal line PC12, which is a continuous clonal cell line of neural crest origin derived from a tumor of the rat adrenal medulla expressing ganglionic-typeneuronal nicotinic receptors (see Whiting et al., Nature, Vol. 327, pp. 515-518 (1987); Lukas, J. Pharmacol. Exp. Ther., Vol. 251, pp. 175-182 (1989); Whiting et al., Mol. Brain Res., Vol. 10, pp. 61-70 (1990)). Discussion concerning the heterogeneity of nicotinic receptors subtypes is set forth in Lukas et al. Internatl. Review Neurobiol., Vol. 34, pp. 25-130 (1992). Acetylcholine nicotinic receptors expressed in rat ganglia share a very high degree of homology with their human counterparts. See, Fomasari et al., Neurosci. Lett., Vol. 111, pp. 351-356 (1990) and Chini et al., Proc. Natl. Acad. Sci. USA, Vol. 89, pp. 1572-1576 (1992 ). Both clonal cell lines described above were maintained in proliferative growth phase according to routine protocols (Bencherif et al., Mol. Cell, Neurosci., Vol. 2, pp. 52-65, (1991 ) and Bencheft et al., J. Pharmacol. Exp. Ther., Vol. 257, pp. 946-953 (1991)). Intact cells on dishes were used for functional studies. Routinely, sample aliquots were reserved for determination of protein concentration using the method of Bradford, Anal. Biochem., Vol. 72, pp. 248-254 (1976) with bovine serum albumin as the standard.
(§1) Nicotinic acetylcholine receptor (nAChR) function was assayed using ^86 Rb^+ efflux according to a method described by Lukas et al., Anal. Biochem., Vol. 175, pp. 212-218 (1.988). […] The medium was removed and ^86 Rb^+ was quantitated using Cerenkov detection (see Lukas et al., Anal. Biochem., Vol. 175, pp. 212-218 (1988)). Specific ion efflux was determined as the difference in isotope efflux between total and non-specific efflux samples. Dose-response curves were plotted and the concentration resulting in half maximal activation of specific ion flux through nicotinic receptors determined for human muscle and rat ganglionic preparations (EC50).

[4] = target: T2, muscle-like nicotinic receptors (TE671/RD) (Homo sapiens, UniProt P02708+P07510+Q07001); assay: cell-based; conditions: ^86 Rb^+ efflux, read-out: Muscle Effect EC50
T2 construct: these cells express muscle-like nicotinic receptors; endogenous in cells; host or cells: TE671/RD (human embryonal rhabdomyosarcoma)
Source text: Determination of Interaction with Muscle
Human muscle activation was established on the human clonal line TE671/RD which is derived from an embryonal rhabdomyosarcoma (Stratton et al., Carcinogen, Vol. 10, pp. 899-905 (1989)). As evidenced through pharmacological (Lukas, J. Pharmacol. Exp. Ther., Vol. 251, pp. 175-182 (1989)), electrophysiological (Oswald et al., Neurosci. Lett., Vol. 96, pp. 207-212 (1989)), and molecular biological studies (Luther et al., J. Neurosci., Vol. 9, pp. 1082-1096 (1989)) these cells express muscle-like nicotinic receptors. Nicotinic acetylcholine receptor (nAChR) function was assayed using ^86 Rb^+ efflux according to a method described by Lukas et al., Anal. Biochem., Vol. 175, pp. 212-218 (1988). Dose-response curves were plotted and the concentration resulting in half maximal activation of specific ion flux through nicotinic receptors determined for human muscle and rat ganglionic preparations (EC50).
as §1, with “Dose-response curves were plotted and the concentration resulting in half maximal activation of specific ion flux through nicotinic receptors determined for human muscle and rat ganglionic preparations (EC50).” left out

T1 sequence (P04757 26-499): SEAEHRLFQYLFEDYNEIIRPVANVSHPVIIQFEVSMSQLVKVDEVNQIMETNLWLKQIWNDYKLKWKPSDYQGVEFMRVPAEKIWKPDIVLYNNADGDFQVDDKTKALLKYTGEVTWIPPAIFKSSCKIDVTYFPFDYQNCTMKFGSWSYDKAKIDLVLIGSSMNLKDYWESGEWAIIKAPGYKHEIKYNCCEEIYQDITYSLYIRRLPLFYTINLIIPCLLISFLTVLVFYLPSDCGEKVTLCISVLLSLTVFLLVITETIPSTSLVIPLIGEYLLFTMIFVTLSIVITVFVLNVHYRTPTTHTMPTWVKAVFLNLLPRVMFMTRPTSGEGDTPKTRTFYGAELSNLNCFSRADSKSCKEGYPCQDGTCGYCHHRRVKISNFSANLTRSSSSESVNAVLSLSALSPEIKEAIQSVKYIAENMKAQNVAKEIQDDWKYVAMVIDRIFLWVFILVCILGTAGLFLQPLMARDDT
T1 sequence (P12392 21-495): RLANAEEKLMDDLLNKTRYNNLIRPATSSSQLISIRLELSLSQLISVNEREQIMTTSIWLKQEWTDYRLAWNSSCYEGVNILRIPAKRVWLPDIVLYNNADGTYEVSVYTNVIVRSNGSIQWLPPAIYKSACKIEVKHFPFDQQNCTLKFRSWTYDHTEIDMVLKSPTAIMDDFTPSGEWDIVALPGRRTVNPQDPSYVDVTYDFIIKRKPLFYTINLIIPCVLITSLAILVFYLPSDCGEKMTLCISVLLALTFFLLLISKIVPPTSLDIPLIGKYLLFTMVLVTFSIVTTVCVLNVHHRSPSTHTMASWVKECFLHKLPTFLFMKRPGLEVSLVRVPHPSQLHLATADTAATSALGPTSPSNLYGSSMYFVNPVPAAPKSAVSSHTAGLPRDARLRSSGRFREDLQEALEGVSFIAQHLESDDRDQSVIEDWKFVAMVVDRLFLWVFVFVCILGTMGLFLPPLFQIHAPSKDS
T2 sequence (Q07001 22-517): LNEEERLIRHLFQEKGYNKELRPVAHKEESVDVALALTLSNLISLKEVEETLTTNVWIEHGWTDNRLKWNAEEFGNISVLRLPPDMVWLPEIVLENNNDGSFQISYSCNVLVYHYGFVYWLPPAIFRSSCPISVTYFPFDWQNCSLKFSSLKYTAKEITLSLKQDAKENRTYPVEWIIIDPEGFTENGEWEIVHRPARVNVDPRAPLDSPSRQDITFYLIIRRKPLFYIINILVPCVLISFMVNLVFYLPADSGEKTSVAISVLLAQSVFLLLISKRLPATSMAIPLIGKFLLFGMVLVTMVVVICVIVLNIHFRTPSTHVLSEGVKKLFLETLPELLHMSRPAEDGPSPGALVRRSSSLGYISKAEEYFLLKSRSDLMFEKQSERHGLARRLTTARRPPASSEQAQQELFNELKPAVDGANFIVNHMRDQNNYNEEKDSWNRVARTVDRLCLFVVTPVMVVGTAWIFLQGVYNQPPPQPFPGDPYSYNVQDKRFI
T2 sequence (P07510 23-517): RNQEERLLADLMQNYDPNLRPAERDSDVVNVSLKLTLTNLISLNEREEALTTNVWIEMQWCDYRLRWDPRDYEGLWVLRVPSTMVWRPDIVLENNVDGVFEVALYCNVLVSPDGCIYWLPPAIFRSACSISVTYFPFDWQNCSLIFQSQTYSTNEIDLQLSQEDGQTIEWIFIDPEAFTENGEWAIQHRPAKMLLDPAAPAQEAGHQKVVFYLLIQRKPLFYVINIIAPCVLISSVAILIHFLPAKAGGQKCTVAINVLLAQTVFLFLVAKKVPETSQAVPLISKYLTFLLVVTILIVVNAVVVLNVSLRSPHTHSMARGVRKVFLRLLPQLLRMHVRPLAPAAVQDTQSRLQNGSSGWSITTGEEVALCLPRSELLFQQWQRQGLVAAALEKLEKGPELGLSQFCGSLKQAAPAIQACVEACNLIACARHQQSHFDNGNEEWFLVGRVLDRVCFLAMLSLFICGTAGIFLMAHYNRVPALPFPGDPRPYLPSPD
T2 sequence (P11230 24-501, further chain): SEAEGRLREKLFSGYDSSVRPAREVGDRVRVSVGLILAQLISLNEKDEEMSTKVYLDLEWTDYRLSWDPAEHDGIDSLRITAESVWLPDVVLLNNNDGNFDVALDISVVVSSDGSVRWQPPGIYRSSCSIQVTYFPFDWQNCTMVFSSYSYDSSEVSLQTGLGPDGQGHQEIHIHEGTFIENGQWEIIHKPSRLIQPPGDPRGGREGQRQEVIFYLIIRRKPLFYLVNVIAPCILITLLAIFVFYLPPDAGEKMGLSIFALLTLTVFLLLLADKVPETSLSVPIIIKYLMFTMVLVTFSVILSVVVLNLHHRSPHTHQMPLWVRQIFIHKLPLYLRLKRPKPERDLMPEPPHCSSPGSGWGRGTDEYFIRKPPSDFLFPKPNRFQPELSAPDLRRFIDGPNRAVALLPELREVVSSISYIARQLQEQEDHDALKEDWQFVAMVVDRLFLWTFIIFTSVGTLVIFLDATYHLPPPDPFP
T2 sequence (P02708 21-457): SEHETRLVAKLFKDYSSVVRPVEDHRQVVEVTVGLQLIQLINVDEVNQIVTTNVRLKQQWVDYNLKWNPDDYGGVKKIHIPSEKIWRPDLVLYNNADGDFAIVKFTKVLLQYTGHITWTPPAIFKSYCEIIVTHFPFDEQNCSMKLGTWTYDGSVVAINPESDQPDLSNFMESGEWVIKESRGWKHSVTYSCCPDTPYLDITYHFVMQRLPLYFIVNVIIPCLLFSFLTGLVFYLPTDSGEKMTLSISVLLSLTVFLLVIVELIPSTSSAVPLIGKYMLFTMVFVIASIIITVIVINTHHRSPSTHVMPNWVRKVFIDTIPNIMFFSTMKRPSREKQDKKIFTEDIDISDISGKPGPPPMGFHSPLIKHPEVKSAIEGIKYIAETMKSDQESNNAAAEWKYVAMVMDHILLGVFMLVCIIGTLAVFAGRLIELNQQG

In the case of `CCOc1cncc(/C=C/CCNC)c1` [Sample No. 1, (E)-N-methyl-4-[3-(5-ethoxypyridin)yl]-3-buten-1-amine], the Ki (nicotinic receptors) is reported as 9 nM, the EC50 [1] is reported as 269 nM and the “Receptor Activation Emax” value [1] is reported as 67%. The EC50 [2] was 287 nM, the “Dopamine Release Emax” value [2] was 124% and the Emax ([3]; PC-12, read-out: Ganglion Effect Emax) was 0%.

`CNC(C)C/C=C/c1cccnc1` (centres unmarked) [Sample No. 2, (E)-N-methyl-5-(3-pyridinyl)-4-penten-2-amine] was tested, and the Ki (nicotinic receptors) was 82 nM, the EC50 [1] was 1700 nM and the “Receptor Activation Emax” value [1] was 35%. For the same compound, the EC50 [2] was 21400 nM, the “Dopamine Release Emax” value [2] was 182% and the “Ganglion Effect Emax” value [3] was 6%.

For `CNCC/C=C/c1cncc(OC)c1` [Sample No. 3, (E)-N-methyl-4-[3-(5-methoxypyridin)yl]-3-buten-1-amine], the Ki (nicotinic receptors) was 7 nM, the EC50 [1] was 470 nM and the “Receptor Activation Emax” value [1] was 62%. For the same compound, the EC50 [2] was 2340 nM, the “Dopamine Release Emax” value [2] was 106% and the “Ganglion Effect Emax” value [3] was 0%.

In the case of `CN1CCC[C@H]1c1cccnc1` [Sample No. C-1, (S)--(-)--nicotine, reference compound], the “Receptor Activation Emax” value [1] is reported as 87%, the EC50 [2] is reported as 100 nM and the “Dopamine Release Emax” value [2] is reported as 100%. It also gave an EC50 [4] of 80000 nM.

With `CNCC/C=C/c1cccnc1` [Sample No. C-2, (E)-metanicotine, reference compound] the EC50 [1] was 732 nM, the “Receptor Activation Emax” value [1] was 79% and the EC50 [2] was 1160 nM. For the same compound, the “Dopamine Release Emax” value [2] was 81%.
